From PubChem BioAssay (NCI)
Values joined by “and” are separate entries in the source; they are usually repeats but may differ in a detail not shown here. Identical values can stand only once.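 Briefly, cells in 96-well plates were exposed to five compound concentrations for 48 h, and endpoints were estimated by linear interpolation. The concentration for 50% growth inhibition is given as GI50. TGI: total growth inhibition.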

Experiments:
Assay in all cases: NCI tumour cell line growth inhibition, 48 h
DLD-1 colon = tested on: DLD-1 colon
DMS 273 small cell lung = tested on: DMS 273 small cell lung
M19-MEL melanoma = tested on: M19-MEL melanoma
SNB-78 CNS = tested on: SNB-78 CNS
XF 498 CNS = tested on: XF 498 CNS
KM20L2 colon = tested on: KM20L2 colon
HOP-18 NSCLC = tested on: HOP-18 NSCLC
MDA-N = tested on: MDA-N
RXF-631 renal = tested on: RXF-631 renal
P388/ADR leukemia = tested on: P388/ADR leukemia
P388 leukemia = tested on: P388 leukemia

Structure (SMILES)	TGI (DLD-1 colon)	TGI (DMS 273 small cell lung) [µM]	TGI (M19-MEL melanoma)	TGI (SNB-78 CNS)	TGI (XF 498 CNS)	TGI (KM20L2 colon) [µM]	TGI (HOP-18 NSCLC) [µM]	TGI (MDA-N) [µM]	TGI (RXF-631 renal) [µM]	GI50 (DLD-1 colon) [nM]	GI50 (DMS 273 small cell lung) [nM]	GI50 (M19-MEL melanoma) [nM]	GI50 (SNB-78 CNS) [nM]	GI50 (XF 498 CNS) [nM]	GI50 (KM20L2 colon) [nM]	GI50 (HOP-18 NSCLC) [nM]	GI50 (RXF-631 renal) [nM]	TGI (P388/ADR leukemia) [nM]	TGI (P388 leukemia) [µM]
O=C(O)COc1ccc(C(=O)/C(SS/C(C(=O)c2ccc(OCC(=O)O)c(Cl)c2Cl)=C2\C=C(c3ccc(Br)cc3)SS2)=C2/C=C(c3ccc(Br)cc3)SS2)c(Cl)c1Cl	> 63.2 µM	> 100	> 100 µM	36.5 µM	9.89 µM	> 100	39.9	–	–	–	–	–	–	–	–	–	–	–	–
Cn1nnc2c(C(N)=O)ncn2c1=O	> 100 µM	–	> 100 µM	> 100 µM	> 100 µM	> 100	> 100	> 100	–	–	–	–	–	–	–	–	–	–	–
C/C(=C\Cc1cc(O)ccc1O)CCc1c(C)c(O)c(O)c(C=O)c1C	56.8 µM	74.6	38.8 µM	–	48.8 µM	> 100	59.9	–	–	–	–	–	–	–	–	–	–	–	–
CC1(C)CC2=C(Sc3ccccc3N2)C(=O)C1C(=O)C(=O)Nc1cc(Cl)ccc1Cl (stereo unspecified)	–	–	–	–	–	–	–	> 100	–	–	–	–	–	–	–	–	–	–	–
O=C(O)[C@@H](NS(=O)(=O)c1ccc2ccccc2c1)c1ccccc1	> 100 µM	> 100	> 100 µM	–	> 100 µM	> 100	> 100	–	> 100	–	–	–	–	–	–	–	–	–	–
Nc1ccc(C(=O)NN2C(=O)C(Cl)C2c2cccc(O)c2)cc1 (stereo unspecified)	28.4 µM	23.3	38.3 µM	40.2 µM	–	31.8	–	–	–	–	–	–	–	–	–	–	–	–	–
C#C[C@H]1CCCCCC1O (stereo partly specified)	> 100 µM	> 100	> 100 µM	> 100 µM	> 100 µM	> 100	> 100	–	> 100	–	–	–	–	–	–	–	–	–	–
Clc1ccccc1NN(Cc1ccncc1)c1ccccc1Cl	–	–	–	–	–	–	–	27.8	–	–	–	–	–	–	–	–	–	–	–
CCC[CH2][Sn]([CH2]CCC)([O]C(=O)/C=C/c1ccccc1F)[O]C(=O)/C=C/c1ccccc1F	1.5 µM	2.93	2.78 µM	1.7 µM	0.892 µM	2.64	2.98	–	0.972	393	1160	891	452	258	1340	1620	253	–	–
COC(=O)C#CCC1CCCC1C1SCCS1 (stereo unspecified)	> 100 µM	> 100	> 100 µM	> 100 µM	> 100 µM	> 100	> 100	–	> 100	–	–	–	–	–	–	–	–	–	–
CC(=O)Nc1ccc(C(=O)NN2C(=O)C(Cl)C2c2ccc(O)cc2)cc1 (stereo unspecified)	> 100 µM	> 100	> 100 µM	> 100 µM	> 100 µM	> 100	–	–	–	–	–	–	–	–	–	–	–	–	–
CCC1C(=O)OCc2c1cc1n(c2=O)C(CC)c2c-1nc1ccccc1c2Cl (stereo unspecified)	> 100 µM	> 100	> 100 µM	> 100 µM	66.5 µM	> 100	98.2	–	–	–	–	–	–	–	–	–	–	–	–
CCN(CC)CCCC(C)Nc1c(Sc2cnc3cc(Cl)ccc3c2NC(C)CCCN(CC)CC)cnc2cc(Cl)ccc12 (stereo unspecified)	3.84 µM	3.17	3.02 µM	4.74 µM	–	3.09	4.49	–	4.48	–	–	–	–	–	–	–	–	–	–
COc1ccc(-c2onc(-c3c(C)cc(C)cc3C)c2C2=NCCN2)cc1	> 100 µM	–	> 100 µM	> 100 µM	–	> 100	> 100	–	> 100	–	–	–	–	–	–	–	–	–	–
O=C(N/C(=C\c1cc(Cl)ccc1Cl)c1nc2ccc(Cl)cc2[nH]1)c1ccccc1	26.7 µM	–	30 µM	54.8 µM	–	32.2	–	–	–	–	–	–	–	–	–	–	–	–	–
COc1cccc2c1[C@H]1CO[C@H]3C4C[C@H](C(=O)O)C([C@@H](C2)N13)N4C (stereo partly specified)	7.81 µM and 17.4 µM	1.31	9.62 µM and 1.32 µM	9.27 µM and > 30.5 µM	4.19 µM and 1.5 µM	7.84	> 27.5	0.406	–	452	516	611	388	632	–	1130	–	652	5.25
O=[N+]([O-])c1ccc2c(Nc3ccccc3-c3ccccc3Nc3c4ccccc4nc4cc([N+](=O)[O-])ccc34)c3ccccc3nc2c1	> 48.4 µM	> 82.9	19.8 µM	> 100 µM	4.98 µM	> 65	> 100	3.29	> 82.9	–	–	–	–	–	–	–	–	–	–
